Patent US10011589B2, “Treatments for gastrointestinal conditions” (BOARD OF REGENTS, THE UNIVERSITY OF TEXAS SYSTEM, priority 2014, dated 2018)
In brackets after ≈: the same amount, converted by molar mass. Like-named read-outs stand apart in the source and are kept apart here.

Experiments:
[1] = test system: C. difficile strain BAA-1803; assay: MIC against C. difficile strain BAA-1803; type: cell-based, Clostridium difficile; details: 3-position substituents
Method: (§1) The synthesized compounds were initially tested against four virulent C. difficile strains: CD1803 (toxinotype III, 95 NAP1), CD1875 (toxinotype V, NAP7), R20291 (ribotype 027—from A. Sonenshein, Tufts University, USA), and BAA-1875 (ribotype 078, from American Type Culture Collection-ATCC). The activities (i.e. Minimum Inhibitory Concentrations-MICs) of test compounds were determined in 24 or 96 well microtitre plates using bacterial inocula of 10^6 cfu/mL and were defined as the lowest concentration of test compound that inhibited visible growth after 24 h of incubation at 37° C. in an A35 anaerobic chamber (Don-Whitley).

[2] = test system: C. difficile strain ATCC 43596; assay: MIC against infecting strain ATCC 43596; type: cell-based, Clostridium difficile; details: infecting strain ATCC 43596
[3] = test system: C. difficile strains R20291 and BAA-1875; assay: MIC testing against C. difficile strains R20291 and BAA-1875; type: cell-based, Clostridium difficile; details: for fold less active than 1971 (MIC): relative to parent 1971
Method: as §1

Caco-2 monolayer = assay: Caco-2 cell permeability assay; type: in vitro ADME
Method: The permeability co-efficient (Papp A-B) of the compounds were calculated and the ability of compounds to move from the apical to the basolateral side of Caco-2 monolayer is shown in FIG. 16.

[4] = In vitro microsomal stability; type: in vitro ADME; details: microsomes; data not shown; read-out: microsomal stability t½ (converted)
Excerpt: Thus, the very low concentration of the hybrids in the plasma might likely be due to a combination of poor intestinal absorption and hepatic clearance.

[5] = Pharmacokinetic study in hamsters, plasma; type: in vivo; details: male, Syrian, po, hamster, 100 mg/kg in PEG-400:water (85:15); for AUC: read-out: total exposure (AUC) in plasma
Method: (§2) Pharmacokinetic studies were assessed in male Syrian hamsters (˜100 g), from Charles-River, with each carrying a pre-implanted jugular vein cannula. Hamsters (n=5 per group) were fasted overnight and for the duration of the experiment (7 h). After collecting pre-dose blood samples (200 μL), animals were dosed with 100 mg/kg of compounds formulated in PEG-400:water (85:15). At various time points blood samples were collected into heparinized coated tubes that were centrifuged at 3000 rpm for 10 min to yield plasma, which was stored at −20° C. After dosing animals (n=3 per time point) as above, animals were humanely sacrificed at time points and their cecal contents collected and stored at −20° C. For plasma samples, 25 μL of plasma was placed in 384-well analytical plate and quenched by the addition of 50 μL of acetonitrile containing 4 mg/L warfarin as an internal standard. The plate was sealed, shaken at 600 rpm for 10 min, and then was centrifuged at 4000 rpm for 20 min. 15 μL of the supernatant was transferred to a new analytical 96-well plate and mixed with 100 μL of MilliQ water. The samples were analyzed by injecting 5 μL onto a Waters UPLC/SQD LC-MS/MS system. The cecal samples were processed by adding 100 μL of acetonitrile containing 4 mg/L of warfarin (internal standard) to the microfuge tubes containing cecal matter (˜50 mg). The suspension was vortexed for 10 sec, sonicated for 1 min and then centrifuged at 10,000 rpm for 10 min. Aliquots (50 μL) of the collected supernatants were then transferred to a 384-well plate and analyzed by high resolution mass spectroscopy using Waters XEVO QTOF LCMS.

[6] = Cecal content concentrations in hamsters; type: in vivo; details: for mean peak cecal concentration: hamster cecal contents at 1, 3 and 5 h after oral dosing 100 mg/kg, LLOQ 10 ng/mL
Method: as §2, with “After” for “Pharmacokinetic studies were assessed in male Syrian hamsters (˜100 g), from Charles-River, with each carrying a pre-implanted jugular vein cannula. Hamsters (n=5 per group) were fasted overnight and for the duration of the experiment (7 h). After collecting pre-dose blood samples (200 μL), animals were dosed with 100 mg/kg of compounds formulated in PEG-400:water (85:15). At various time points blood samples were collected into heparinized coated tubes that were centrifuged at 3000 rpm for 10 min to yield plasma, which was stored at −20° C. After”
To evaluate this in vivo, we determined the concentrations of the three compounds in the cecal contents recovered from hamsters at 1, 3 and 5 h time points following oral dosing (FIG. 19).

C. difficile = assay: MIC of nitro and des-nitro analogs (mode of action); type: cell-based, Clostridium difficile; details: Clostridioides difficile; des-nitro analogs (FIG. 11)
[7] = test system: C. difficile strain ATCC 43596; assay: Hamster model of CDI (efficacy); type: in vivo, Golden Syrian hamsters; details: vancomycin 20 mg/kg; hybrids 50 mg/kg
Method: Golden Syrian hamsters (˜100 g) from Charles River Laboratories were separately housed in sterile cages and maintained on sterile food and water. On day −1, animals were subcutaneously injected with clindamycin phosphate solution (50 mg/kg, from Hospira). After 20 h (day 0), hamsters were infected by oral gavage with 10^6 cfu of the C. difficile strain ATCC 43596 grown in Sporulation Medium and washed once with pre-reduced PBS; 15. […] After 5 days of treatment, surviving hamsters were monitored for up to 30 days for signs of disease as described by Anton et al. All moribund animals were euthanized, as well as those that survived the post-treatment monitoring period (30 days); ceca were recovered from all animals. All animal experiments were approved by The Institutional Animal Care and Use Committee of The University of Texas at Arlington.

[8] = literature; cited from earlier work
[9] = Clostridioides difficile, ATCC43596, read-out: MIC

Structure (SMILES): CC(=O)C1=C(O)C(CC(C)C)N(CCn2c([N+](=O)[O-])cnc2C)C1=O (stereo not drawn) [Compound 1971, 3-acetyl-4-hydroxy-5-isobutyl-1-(2-(2-methyl-5-nitro-1H-imidazol-1-yl)ethyl)-1H-pyrrol-2(5H)-one]
- activity / MIC in words (FIG. 10) [1]: No difference in MIC
- MIC [2, 9]: 0.5 µg/mL (≈ 1.43 µM)
- MIC ([3]; Clostridioides difficile, BAA1875, C. difficile R20291 and BAA-1875 (FIG. 8), 24 h, 37° C., anaerobic): 1 to 2 µg/mL (≈ 2.85 to 5.71 µM)
- fold less active than metronidazole (MIC) ([3]; relative to metronidazole): 4 to 8 fold

Structure (SMILES): Cc1cnc([N+](=O)[O-])n1CCNC(=O)C1=C(O)C(CC(C)C)NC1=O (stereo not drawn) [Compound 2122, 4-hydroxy-5-isobutyl-N-(2-(5-methyl-2-nitro-1H-imidazol-1-yl)ethyl)-2-oxo-2,5-dihydro-1H-pyrrole-3-carboxamide]
- fold less active than 1971 (MIC) [3]: 24 fold

Structure (SMILES): Cc1ncc([N+](=O)[O-])n1CC(=O)C1=C(O)C(CC(C)C)NC1=O (stereo not drawn) [Compound 2123, 4-hydroxy-5-isobutyl-3-(2-(2-methyl-5-nitro-1H-imidazol-1-yl)acetyl)-1H-pyrrol-2(5H)-one]
- fold less active than 1971 (MIC) [3]: 10 fold

Structure (SMILES): CC(=O)C1=C(O)CN(CCn2c([N+](=O)[O-])cnc2C)C1=O [Compound 2153, 3-acetyl-4-hydroxy-1-(2-(2-methyl-5-nitro-1H-imidazol-1-yl)ethyl)-1H-pyrrol-2(5H)-one]
- fold less active than 1971 (MIC) [3]: > 64 fold

Structure (SMILES): CC(=O)C1=C(O)C(Cc2ccccc2)N(CCn2c([N+](=O)[O-])cnc2C)C1=O (stereo not drawn) [Compound 2154, 3-acetyl-5-benzyl-4-hydroxy-1-(2-(2-methyl-5-nitro-1H-imidazol-1-yl)ethyl)-1H-pyrrol-2(5H)-one]
- Caco-2 permeation in words (Caco-2 monolayer; Caco-2): slightly more permeable than vancomycin
- permeability co-efficient (Papp A-B) (Caco-2 monolayer; Caco-2): 284.5±34.7 to 307±35.6

Structure (SMILES): CCC(C)C1C(O)=C(C(C)=O)C(=O)N1CCn1c([N+](=O)[O-])cnc1C (stereo not drawn) [Compound 2155, 3-acetyl-5-(sec-butyl)-4-hydroxy-1-(2-(2-methyl-5-nitro-1H-imidazol-1-yl)ethyl)-1H-pyrrol-2(5H)-one]
- Caco-2 permeation in words (Caco-2 monolayer; Caco-2): slightly more permeable than vancomycin
- permeability co-efficient (Papp A-B) (Caco-2 monolayer; Caco-2): 284.5±34.7 to 307±35.6

Structure (SMILES): CC(=O)C1=C(O)C(CSCc2ccccc2)N(CCn2c([N+](=O)[O-])cnc2C)C1=O (stereo not drawn) [Compound 2313, 3-acetyl-5-((benzylthio)methyl)-4-hydroxy-1-(2-(2-methyl-5-nitro-1H-imidazol-1-yl)ethyl)-1H-pyrrol-2(5H)-one]
- Caco-2 permeation in words (Caco-2 monolayer; Caco-2): slightly more permeable than vancomycin
- permeability co-efficient (Papp A-B) (Caco-2 monolayer; Caco-2): 284.5±34.7 to 307±35.6

Structure (SMILES): Cc1ncc([N+](=O)[O-])n1CCN1C(=O)C=C(O)C1CC(C)C.O=C(O)C(F)(F)F (stereo not drawn) [Compound 2314, 4-hydroxy-5-isobutyl-1-(2-(2-methyl-5-nitro-1H-imidazol-1-yl)ethyl)-1H-pyrrol-2(5H)-one, TFA]
- activity / MIC in words (FIG. 10) [1]: loss of activity

Structure (SMILES): Cc1ncc([N+](=O)[O-])n1CCN1C(=O)C(C(=O)c2ccc(F)cc2)=C(O)[C@H]1CC(C)C [Compound 2315, (R)-3-(4-fluorobenzoyl)-4-hydroxy-5-isobutyl-1-(2-(2-methyl-5-nitro-1H-imidazol-1-yl)ethyl)-1H-pyrrol-2(5H)-one]
- activity / MIC in words (FIG. 10) [1]: No difference in MIC
- Caco-2 permeation in words (Caco-2 monolayer; Caco-2): slightly more permeable than vancomycin
- permeability co-efficient (Papp A-B) (Caco-2 monolayer; Caco-2): 284.5±34.7 to 307±35.6

Structure (SMILES): CC(=O)C1=C(O)C(Cc2cccc3ccccc23)N(CCn2c([N+](=O)[O-])cnc2C)C1=O (stereo not drawn) [Compound 2344, 3-acetyl-4-hydroxy-1-(2-(2-methyl-5-nitro-1H-imidazol-1-yl)ethyl)-5-(naphthalen-1-ylmethyl)-1H-pyrrol-2(5H)-one]
- half-life [4]: 18 min
- Cmax [5]: 211 ng/mL
- Tmax [5]: 15 min
- AUC [5]: 386 ng·h/mL
- MIC [2, 9]: 0.25 µg/mL (≈ 0.575 µM)
- mean peak cecal concentration [6]: 2,678 ng/mL

Structure (SMILES): CC(=O)C1=C(O)C(Cc2ccc(-c3ccccc3)cc2)N(CCn2c([N+](=O)[O-])cnc2C)C1=O (stereo not drawn) [Compound 2345, 5-([1,1′-biphenyl]-4-ylmethyl)-3-acetyl-4-hydroxy-1-(2-(2-methyl-5-nitro-1H-imidazol-1-yl)ethyl)-1H-pyrrol-2(5H)-one]
- half-life [4]: 79.8 min
- Cmax [5]: 616 ng/mL
- Tmax [5]: 15 min
- AUC [5]: 355 ng·h/mL
- MIC [2, 9]: 0.25 µg/mL (≈ 0.543 µM)
- fold difference in cecal concentration of 2344 and 2345 ([6]; 2345 versus 2344): 12 fold
- mean peak cecal concentration [6]: 32,649 ng/mL

Structure (SMILES): CC(=O)C1=C(O)C(Cc2cn(C)c3ccccc23)N(CCn2c([N+](=O)[O-])cnc2C)C1=O (stereo not drawn) [Compound 2490]
- MIC [2]: 0.25 µg/mL (≈ 0.571 µM)

Structure (SMILES): CC(=O)C1=C(O)C(Cc2cccc3ccccc23)N(CCn2ccnc2C)C1=O (stereo not drawn) [Compound 2699, 3-acetyl-4-hydroxy-1-(2-(2-methyl-1H-imidazol-1-yl)ethyl)-5-(naphthalen-1-ylmethyl)-1H-pyrrol-2(5H)-one]
- MIC (C. difficile): > 128 µg/mL

Structure (SMILES): CC(=O)C1=C(O)C(Cc2ccc(-c3ccccc3)cc2)N(CCn2ccnc2C)C1=O (stereo not drawn) [Compound 2700, 5-([1,1′-biphenyl]-4-ylmethyl)-3-acetyl-4-hydroxy-1-(2-(2-methyl-1H-imidazol-1-yl)ethyl)-1H-pyrrol-2(5H)-one]
- MIC (C. difficile): > 128 µg/mL

Structure (SMILES): CN[C@H](CC(C)C)C(=O)N[C@H]1C(=O)N[C@@H](CC(N)=O)C(=O)N[C@H]2C(=O)N[C@H]3C(=O)N[C@H](C(=O)N[C@H](C(=O)O)c4cc(O)cc(O)c4-c4cc3ccc4O)[C@H](O)c3ccc(c(Cl)c3)Oc3cc2cc(c3O[C@@H]2O[C@H](CO)[C@@H](O)[C@H](O)[C@H]2O[C@H]2C[C@](C)(N)[C@H](O)[C@H](C)O2)Oc2ccc(cc2Cl)[C@H]1O [vancomycin]
- complete survival, days post-treatment [7]: more than 20 days
- absorbed from the gastrointestinal tract [8]: < 10%
- Caco-2 permeation in words (Caco-2 monolayer; apical to basolateral): poor permeation properties
